# Measured values published in PMC12040169 (PLOS Biology, 2025).
# Assay: in vitro
# Conditions: human, hela cells, % viability
row,SMILES,"viability at 28.5 h, 10 µM [%]"
1,Cc1c(C(=O)N2CCC(n3cncn3)CC2)sc2cccc(F)c12 [CBK305520],103
2,Cc1cc(CNC(=O)Nc2ccc(F)c(-n3nnnc3C)c2)n(C)n1 [CBK305525],88.4
3,CN(C(=O)CN1CSCC1=O)c1nc2c(s1)CC(c1ccccc1)CC2 (centres unmarked) [CBK305526],91.6
4,Cc1cc(C)c2c(OCC(=O)Nc3nc(C(N)=O)cs3)nn(C)c2n1 [CBK305530],83.9
5,CCc1cc(=O)[nH]c(-c2ccc(N3CCOCC3C)nc2)n1 (centres unmarked) [CBK305532],95.7
6,CCOc1nnc(CN(CCC(N)=O)c2ccc(F)cc2)s1 [CBK305536],110
7,CCNC(=O)N(C)C1CCN(c2ncnc3ccccc23)CC1 [CBK305537],110
8,CCc1nn(C)c2[nH]nc(NC(=O)Cc3csc(C)n3)c12 [CBK305538],91.7
9,CC(C)(c1noc(C2CCOCC2)n1)S(=O)(=O)c1ccc(Br)cc1 [CBK305543],93.5
10,Cc1cc(NC(=O)C2CCN(CC3CCCO3)CC2)no1 (centres unmarked) [CBK305544],110
11,Cc1cc(NC(=O)C2CCN(C(=O)c3cnc(N)c(Cl)c3)CC2)no1 [CBK305545],110
12,Cc1cc(C)n(CC(=O)NC2CCCOc3c(F)cccc32)n1 (centres unmarked) [CBK305553],106
13,Cc1ncsc1C(=O)NCc1ccc(S(=O)(=O)N2CCCCC2)cc1 [CBK305556],89.9
14,Cc1cc(CNC(=O)C2CC(=O)N(Cc3ccccn3)C2)ccc1F (centres unmarked) [CBK305557],77.3
15,CCC(Oc1ccccc1F)C(=O)Nc1cc(C)on1 (centres unmarked) [CBK305558],98.5
16,CCCS(=O)(=O)N1CCC(C(=O)NCc2ccc(Cl)cc2Cl)CC1 [CBK305559],102
17,Cc1cc(N2CCN(C(=O)Cc3cccs3)CC2)nc(C(C)C)n1 [CBK305562],88.1
18,COC(=O)c1cccc(OCC(O)Cn2nc(C)c(C)c(C#N)c2=O)c1 (centres unmarked) [CBK305563],85.3
19,CN(C)C(CNC(=O)Nc1cccc(C(=O)NC2CC2)c1)c1cccs1 (centres unmarked) [CBK305565],115
20,Cc1noc(CN2CCN(c3ccc4nnc(C(F)(F)F)n4n3)CC2)n1 [CBK305566],93.3
21,CC(=O)Nc1ccc(OCC(O)Cn2ncc3ccccc3c2=O)cc1 (centres unmarked) [CBK305567],105
22,O=C1NC2(CCCCCC2)C(=O)N1Cc1cnn(-c2ccccc2)n1 [CBK305571],100
23,Cc1nn(-c2ccccc2)c(CN2C(=O)NC3(CCCC3)C2=O)c1C#N [CBK305572],81.4

row,SMILES,"viability at 28.5 h, 10 µM [%]"
1,CCOC(=O)C1CCCN(C(=O)Cn2ncc(Cl)c(Cl)c2=O)C1 (centres unmarked) [CBK305573],47.7
2,COc1ccc(OCC(O)Cn2c(CCCO)nc3ccccc32)cc1 (centres unmarked) [CBK305579],101
3,COCCn1c(SC(C)C(=O)N2CCOCC2)nc2cc(Cl)ccc21 (centres unmarked) [CBK305580],94.8
4,CCCN1CCC(NC(=O)Cn2nnc3ccccc3c2=O)CC1 [CBK305581],102
5,CCCc1nnc(SCC(=O)Nc2ccc(CN3CCOCC3)cc2)[nH]1 [CBK305583],82.4
6,O=C(NC1CCN(Cn2nnc3ccccc3c2=O)CC1)C1CC1 [CBK305584],82.3
7,CCOC(=O)c1cnn2c(O)cc(CN3CCCCC3)nc12 [CBK305585],101
8,CS(=O)(=O)NCC1CCCCN1Cc1ccc(-n2cccn2)cc1 (centres unmarked) [CBK305587],91.9
9,CC(=O)N1CCN(CC(O)Cn2c3ccccc3c3ccccc32)CC1 (centres unmarked) [CBK305588],102
10,O=C(Cn1nnc2ccccc2c1=O)NC1CCN2CCCCC12 (centres unmarked) [CBK305589],105
11,Cc1cc(C)n(CC(=O)Nc2nc(CN3CCC(C)CC3)cs2)n1 [CBK305592],101
12,COc1ncccc1CNC(=O)Cn1ccc(=O)[nH]c1=O [CBK305596],99.9
13,COc1ccccc1-c1noc(CN2CCCC(C(F)(F)F)C2)n1 (centres unmarked) [CBK305598],93.6
14,Cc1cc(NC(=O)CN(C)Cc2ccc(Br)cc2)on1 [CBK305599],97.3
15,N#Cc1ccc(C(=O)NCC2(N3CCOCC3)CCSC2)cc1 (centres unmarked) [CBK305602],95.3
16,CCc1nn2c(=O)cc(CNc3ccccc3CN(C)C(C)=O)nc2s1 [CBK305604],114
17,CC(Cn1cccn1)NS(=O)(=O)c1ccc(N2CCCC2=O)cc1 (centres unmarked) [CBK305606],83.7
18,CCC1CCCCN1C(=O)CCc1c(C)nc(-c2ccccc2)[nH]c1=O (centres unmarked) [CBK305608],87.5
19,Cc1oc(NC(=O)CN(C)Cc2cccc(F)c2)c(C#N)c1C [CBK305609],90.9
20,Cc1cc(NC(=O)CN2CCN(Cc3ccc4c(c3)CCO4)CC2)on1 [CBK305610],92.5
21,Cc1nc(CN2CCN(C(=O)NCCc3cnn(C)c3)CC2)cs1 [CBK305614],81.3
22,CC(=O)Nc1ccc(OCC(O)Cn2nc(-c3ccco3)oc2=O)cc1 (centres unmarked) [CBK305615],97.9
23,Cc1cc(C)n2ncc(C(=O)N3CCCC3c3ccsc3)c2n1 (centres unmarked) [CBK305616],94.6

row,SMILES,"viability at 28.5 h, 10 µM [%]"
1,CC(C)(C)OC(=O)N1CCCC(C(=O)NC2CCCc3ccccc32)C1 (centres unmarked) [CBK305617],93.2
2,COc1cccc(CC(=O)NCC(c2cccs2)N2CCOCC2)c1 (centres unmarked) [CBK305621],95.9
3,Cc1cc(NC(=O)CN(C)Cc2cnn(-c3ccccc3)c2)on1 [CBK305622],92.5
4,CS(=O)(=O)NC1CCCN(c2nc(-c3ccsc3)nc3ccccc23)C1 (centres unmarked) [CBK305623],99.1
5,CCOC(=O)c1cnn2c(O)cc(CN(Cc3cccs3)C3CC3)nc12 [CBK305625],96.9
6,Cn1cc(-c2nc(C(=O)N3CCN(c4ncccn4)CC3)cs2)cn1 [CBK305626],91
7,Cc1cc(CN2CCN(C(=O)NCc3cccnc3)CC2)on1 [CBK305627],114
8,Cc1cc(C)n(CC(C)CNC(=O)Cc2csc(-c3ccco3)n2)n1 (centres unmarked) [CBK305628],103
9,Cc1cc(C2CCCN2C(=O)c2cnn3c(C)cc(C)nc23)on1 (centres unmarked) [CBK305634],109
10,Cc1cc(CN2CCN(C(=O)NCCc3ccccn3)CC2)on1 [CBK305637],80
11,Cc1ccccc1Nc1nc(N)nc(CN2CCCC2C(=O)N(C)C)n1 (centres unmarked) [CBK305638],81
12,Cc1nc(CNC(=O)NC2CCCN(c3ncccn3)C2)cs1 (centres unmarked) [CBK305640],95.3
13,Cc1cc(CN2CCN(C(C)c3nc(C(C)(C)C)no3)CC2)no1 (centres unmarked) [CBK305641],97.7
14,Cc1ccc(CNC(=O)Cc2csc(N3CCCC3=O)n2)n1C [CBK305642],98.6
15,CCN(Cc1ccc(C#N)cc1F)C(=O)NC(C)c1cnn(C)c1C (centres unmarked) [CBK305643],108
16,Cc1cc(NC(=O)CN2CCN(Cc3ccccc3C#N)CC2)no1 [CBK305644],77.3
17,O=C(NCc1cc[nH]n1)N1CCCN(Cc2cccs2)CC1 [CBK305645],82
18,Cc1ccccc1Nc1nc(N)nc(CN2CCOCC2)n1 [CBK305646],87.5
19,CCOC(=O)c1cnn2c(O)cc(CN3CCCC3c3ccsc3)nc12 (centres unmarked) [CBK305647],96.1
20,CC(C)(C)OC(=O)N1CCN(C(=O)c2cc(-c3cccnc3)on2)CC1 [CBK305648],88.7
21,Cc1cccc(CN2CCC(NC(=O)Cn3cnnn3)CC2)c1 [CBK305649],95.9
22,CS(=O)(=O)N1CCc2cc(-c3csc(NCC(F)(F)F)n3)ccc21 [CBK305650],95.4
23,CCN(CC1CCOC1)C(=O)c1cn2ccccc2n1 (centres unmarked) [CBK305653],83.5

row,SMILES,"viability at 28.5 h, 10 µM [%]"
1,Cc1sc2ncn(CC(=O)NCc3nnc4n3CCC4)c(=O)c2c1C [CBK305654],93.8
2,O=C(NCC(=O)N1CCCC1c1cccs1)c1cccc(Br)c1 (centres unmarked) [CBK305655],99.2
3,Cn1cc(CCNC(=O)Nc2ccc(N3CCCC3)nc2)cn1 [CBK305659],92.3
4,CCN(C(C)COC)S(=O)(=O)c1ccc(-n2ncc(Cl)c(Cl)c2=O)cc1 (centres unmarked) [CBK305662],37
5,CCN1CCC(CNS(=O)(=O)c2ccc(N3CCCC3=O)cc2)CC1 [CBK305663],101
6,Cn1cc(C(=O)NC2CCN(C(=O)c3ccc4c(c3)CCC4)CC2)cn1 [CBK305664],97.8
7,Cc1cccc(CN2CCC(NC(=O)Cn3ccccc3=O)CC2)c1 [CBK305667],111
8,Cc1ccc2c(c1)CCCN2C(=O)c1cnc2c(c1)c(C)nn2C [CBK305670],96
9,Cc1nc(CNc2ccc3nnc(C(F)(F)F)n3n2)cs1 [CBK305674],91.6
10,Cc1cc(C)n2ncc(C(=O)NCC(c3cccs3)N3CCCC3)c2n1 (centres unmarked) [CBK305675],85.3
11,COC(=O)c1ccc(OCCn2nc(C)c(C)c(C#N)c2=O)cc1 [CBK305676],69.5
12,CCOC(=O)c1cnn2c(O)cc(CN3CCc4ccccc4C3)nc12 [CBK305679],97.2
13,CCOC(=O)c1cnn2c(O)cc(CN3CCc4sccc4C3)nc12 [CBK305680],106
14,Cc1ccc(Cl)c(OC(C)C(=O)NCC2(N3CCOCC3)CCSC2)c1 (centres unmarked) [CBK305681],110
15,COc1cccc(CC(=O)NCCNc2cccc(F)c2C#N)c1 [CBK305684],78.5
16,N#Cc1cccc(OCC(=O)NCC2(N3CCOCC3)CCSC2)c1 (centres unmarked) [CBK305685],86.3
17,O=C(Cn1cc(Br)ccc1=O)NC1CCN(Cc2ccccn2)CC1 [CBK305686],92.2
18,CCCC(=O)Nc1ccc(-c2csc(CCN3CCOC3=O)n2)cc1 [CBK305687],97
19,Cc1cc(NC(=O)C2CCN(c3ncccc3C#N)CC2)no1 [CBK305689],88.3
20,Cc1nn(C)c(C)c1CCC(=O)OCc1cc(=O)n2ccccc2n1 [CBK305690],90.8
21,Cn1cc(CCNC(=O)N2CCN(Cc3ccsc3)CC2)cn1 [CBK305692],88.6
22,Cc1cc(C)n(CC(=O)NC(CC(=O)O)c2ccccc2Cl)n1 (centres unmarked) [CBK305695],106
23,CCN(Cc1ccc(C#N)cc1F)C(=O)Nc1cnn(CCOC)c1 [CBK305697],91.9
